Measured values published in ChEMBL document CHEMBL5303573, “Mapping human microbiome drug metabolism by gut bacteria and their genes” (Nature, 2019).

What was measured:
[1] = bacteroides fragilis, 12 h, 2 µM
Description: The drug is tested on Bacteroides fragilis strain: 3397 (T10) for biotransformation. The drug concentrations were measured before and after a 12-h incubation by liquid-chromatography-coupled mass spectrometry (LC–MS)

[2] = The drug is tested on Bifidobacterium ruminantium strain: fecal isolate for biotransformation. The drug concentrations were measured before and after a 12-h incubation by liquid-chromatography-coupled mass spectrometry (LC–MS); settings: 2 µM
[3] = bacteroides thetaiotaomicron, 12 h, 2 µM
Description: The drug is tested on Bacteroides thetaiotaomicron strain: VPI-5482 for biotransformation. The drug concentrations were measured before and after a 12-h incubation by liquid-chromatography-coupled mass spectrometry (LC–MS)

[4] = The drug is tested on Edwardsiella tarda strain: ATCC23685 for biotransformation. The drug concentrations were measured before and after a 12-h incubation by liquid-chromatography-coupled mass spectrometry (LC–MS); settings: 2 µM
[5] = clostridioides difficile, 12 h, 2 µM
Description: The drug is tested on Clostridium difficile strain: 120 for biotransformation. The drug concentrations were measured before and after a 12-h incubation by liquid-chromatography-coupled mass spectrometry (LC–MS)

[6] = roseburia intestinalis, 12 h, 2 µM
Description: The drug is tested on Roseburia intestinalis strain: L1-82 for biotransformation. The drug concentrations were measured before and after a 12-h incubation by liquid-chromatography-coupled mass spectrometry (LC–MS)

[7] = The drug is tested on Providencia alcalifaciens strain: DSM30120 for biotransformation. The drug concentrations were measured before and after a 12-h incubation by liquid-chromatography-coupled mass spectrometry (LC–MS); settings: 2 µM
[8] = The drug is tested on Bacteroides fragilis strain: T(B)9 for biotransformation. The drug concentrations were measured before and after a 12-h incubation by liquid-chromatography-coupled mass spectrometry (LC–MS); settings: 2 µM
[9] = The drug is tested on Eubacterium biforme strain: DSM3989 for biotransformation. The drug concentrations were measured before and after a 12-h incubation by liquid-chromatography-coupled mass spectrometry (LC–MS); settings: holdemanella biformis, 2 µM
[10] = (§1) The drug is tested on the gut metagenome community of MV23 with ENA study accession number: PRJEB31790 and ENA sample accession number: SAMEA5537504 for biotransformation. The drug concentrations were measured over 9 timepoints collected between 0 and 24 hours of incubation by liquid-chromatography-coupled mass spectrometry (LC–MS); type: ADME; set-up: dose 2 uM, timepoint 0, 1, 2, 4, 6, 8, 12, 18, 24 hours; settings: 2 µM
[11] = as §1, with “MV18” for “MV23”, “SAMEA5537499” for “SAMEA5537504”; type: ADME; set-up: dose 2 uM, timepoint 0, 1, 2, 4, 6, 8, 12, 18, 24 hours; settings: 2 µM
[12] = as §1, with “MV11” for “MV23”, “SAMEA5537492” for “SAMEA5537504”; type: ADME; set-up: dose 2 uM, timepoint 0, 1, 2, 4, 6, 8, 12, 18, 24 hours; settings: 2 µM
[13] = victivallis vadensis, 12 h, 2 µM
Description: The drug is tested on Victivallis vadensis strain: ATCC BAA-548 for biotransformation. The drug concentrations were measured before and after a 12-h incubation by liquid-chromatography-coupled mass spectrometry (LC–MS)

[14] = as §1, with “MV04” for “MV23”, “SAMEA5537485” for “SAMEA5537504”; type: ADME; set-up: dose 2 uM, timepoint 0, 1, 2, 4, 6, 8, 12, 18, 24 hours; settings: 2 µM
[15] = as §1, with “MV03” for “MV23”, “SAMEA5537484” for “SAMEA5537504”; type: ADME; set-up: dose 2 uM, timepoint 0, 1, 2, 4, 6, 8, 12, 18, 24 hours; settings: 2 µM
[16] = as §1, with “MV02” for “MV23”, “SAMEA5537483” for “SAMEA5537504”; type: ADME; set-up: dose 2 uM, timepoint 0, 1, 2, 4, 6, 8, 12, 18, 24 hours; settings: 2 µM
[17] = as §1, with “MV22” for “MV23”, “SAMEA5537503” for “SAMEA5537504”; type: ADME; set-up: dose 2 uM, timepoint 0, 1, 2, 4, 6, 8, 12, 18, 24 hours; settings: 2 µM
[18] = The drug is tested on Clostridium hathewayi strain: DSM13479 for biotransformation. The drug concentrations were measured before and after a 12-h incubation by liquid-chromatography-coupled mass spectrometry (LC–MS); settings: hungatella hathewayi, 2 µM
[19] = The drug is tested on Clostridium spiroforme strain: DSM1552 for biotransformation. The drug concentrations were measured before and after a 12-h incubation by liquid-chromatography-coupled mass spectrometry (LC–MS); settings: thomasclavelia spiroformis, 2 µM
[20] = The drug is tested on Eggerthella lenta strain: ATCC25559 for biotransformation. The drug concentrations were measured before and after a 12-h incubation by liquid-chromatography-coupled mass spectrometry (LC–MS); settings: 2 µM

In the case of `CC(C)(C(=O)O)c1ccc(C(O)CCCN2CCC(C(O)(c3ccccc3)c3ccccc3)CC2)cc1` (stereo not given) [FEXOFENADINE], the “Bacterial Biotransformation” value [1] is reported as “Compound NOT metabolized”, the “Bacterial Biotransformation” value [2] is reported as “Compound NOT metabolized” and the “Bacterial Biotransformation” value [3] is reported as “Compound NOT metabolized”. For the same compound, the “Bacterial Biotransformation” value [4] was “Compound NOT metabolized”, the “Bacterial Biotransformation” value [5] was “Compound NOT metabolized” and the “Bacterial Biotransformation” value [6] was “Compound NOT metabolized”. For the same compound, the “Bacterial Biotransformation” value [7] was “Compound NOT metabolized”, the “Bacterial Biotransformation” value [8] was “Compound NOT metabolized” and the “Bacterial Biotransformation” value [9] was “Compound NOT metabolized”.
With `C#C[C@]1(OC(C)=O)CC[C@H]2[C@@H]3CCC4=CC(=O)CC[C@@H]4[C@H]3CC[C@@]21C` [NORETHINDRONE ACETATE] the “Bacterial Biotransformation” value [1] was “Compound metabolized”, the “Bacterial Biotransformation” value [10] was “Compound metabolized” and the “Bacterial Biotransformation” value [2] was “Compound NOT metabolized”. For the same compound, the “Bacterial Biotransformation” value [3] was “Compound metabolized”, the “Bacterial Biotransformation” value [4] was “Compound NOT metabolized” and the “Bacterial Biotransformation” value [11] was “Compound metabolized”. The “Bacterial Biotransformation” value [12] was “Compound metabolized”, the “Bacterial Biotransformation” value [13] was “Compound NOT metabolized” and the “Bacterial Biotransformation” value [14] was “Compound metabolized”. For the same compound, the “Bacterial Biotransformation” value [15] was “Compound metabolized”, the “Bacterial Biotransformation” value [16] was “Compound metabolized” and the “Bacterial Biotransformation” value [17] was “Compound metabolized”.
In the case of `CC(=O)OCC(CCn1cnc2cnc(N)nc21)COC(C)=O` [FAMCICLOVIR], the “Bacterial Biotransformation” value [1] is reported as “Compound metabolized”, the “Bacterial Biotransformation” value [10] is reported as “Compound metabolized” and the “Bacterial Biotransformation” value [3] is reported as “Compound metabolized”. The “Bacterial Biotransformation” value [4] was “Compound NOT metabolized”, the “Bacterial Biotransformation” value [11] was “Compound metabolized” and the “Bacterial Biotransformation” value [12] was “Compound metabolized”. The “Bacterial Biotransformation” value [13] was “Compound metabolized”, the “Bacterial Biotransformation” value [14] was “Compound metabolized” and the “Bacterial Biotransformation” value [15] was “Compound metabolized”. The “Bacterial Biotransformation” value [16] was “Compound metabolized”, the “Bacterial Biotransformation” value [6] was “Compound NOT metabolized” and the “Bacterial Biotransformation” value [17] was “Compound metabolized”.
With `COC(=O)Nc1nc2ccc(C(=O)c3ccccc3)cc2[nH]1` [MEBENDAZOLE] the “Bacterial Biotransformation” value [2] was “Compound metabolized”, the “Bacterial Biotransformation” value [18] was “Compound NOT metabolized” and the “Bacterial Biotransformation” value [3] was “Compound metabolized”. For the same compound, the “Bacterial Biotransformation” value [4] was “Compound NOT metabolized”, the “Bacterial Biotransformation” value [13] was “Compound NOT metabolized” and the “Bacterial Biotransformation” value [19] was “Compound NOT metabolized”. The “Bacterial Biotransformation” value [5] was “Compound NOT metabolized”, the “Bacterial Biotransformation” value [6] was “Compound NOT metabolized” and the “Bacterial Biotransformation” value [7] was “Compound NOT metabolized”. For the same compound, the “Bacterial Biotransformation” value [8] was “Compound metabolized” and the “Bacterial Biotransformation” value [9] was “Compound NOT metabolized”.
In the case of `C#C[C@]1(OC(C)=O)CC[C@H]2[C@@H]3CCC4=C/C(=N/O)CC[C@@H]4[C@H]3CC[C@@]21CC` [NORGESTIMATE], the “Bacterial Biotransformation” value [1] is reported as “Compound NOT metabolized”, the “Bacterial Biotransformation” value [2] is reported as “Compound NOT metabolized” and the “Bacterial Biotransformation” value [18] is reported as “Compound NOT metabolized”. The “Bacterial Biotransformation” value [3] was “Compound NOT metabolized”, the “Bacterial Biotransformation” value [4] was “Compound NOT metabolized” and the “Bacterial Biotransformation” value [13] was “Compound NOT metabolized”. The “Bacterial Biotransformation” value [19] was “Compound NOT metabolized”, the “Bacterial Biotransformation” value [6] was “Compound NOT metabolized” and the “Bacterial Biotransformation” value [7] was “Compound NOT metabolized”. The “Bacterial Biotransformation” value [8] was “Compound NOT metabolized”, the “Bacterial Biotransformation” value [9] was “Compound metabolized” and the “Bacterial Biotransformation” value [20] was “Compound metabolized”.
With `COc1ccc([C@@H]2Sc3ccccc3N(CCN(C)C)C(=O)[C@@H]2OC(C)=O)cc1` [DILTIAZEM] the “Bacterial Biotransformation” value [10] was “Compound NOT metabolized”, the “Bacterial Biotransformation” value [2] was “Compound NOT metabolized” and the “Bacterial Biotransformation” value [3] was “Compound metabolized”. The “Bacterial Biotransformation” value [4] was “Compound NOT metabolized”, the “Bacterial Biotransformation” value [11] was “Compound NOT metabolized” and the “Bacterial Biotransformation” value [12] was “Compound NOT metabolized”. For the same compound, the “Bacterial Biotransformation” value [13] was “Compound metabolized”, the “Bacterial Biotransformation” value [14] was “Compound NOT metabolized” and the “Bacterial Biotransformation” value [15] was “Compound NOT metabolized”. For the same compound, the “Bacterial Biotransformation” value [16] was “Compound NOT metabolized”, the “Bacterial Biotransformation” value [6] was “Compound NOT metabolized” and the “Bacterial Biotransformation” value [20] was “Compound metabolized”. For the same compound, the “Bacterial Biotransformation” value [17] was “Compound NOT metabolized”.
For `CNCC[C@H](Oc1cccc2ccccc12)c1cccs1` [DULOXETINE], the “Bacterial Biotransformation” value [2] was “Compound metabolized”, the “Bacterial Biotransformation” value [18] was “Compound NOT metabolized” and the “Bacterial Biotransformation” value [3] was “Compound NOT metabolized”. For the same compound, the “Bacterial Biotransformation” value [13] was “Compound NOT metabolized”, the “Bacterial Biotransformation” value [19] was “Compound NOT metabolized” and the “Bacterial Biotransformation” value [5] was “Compound metabolized”. The “Bacterial Biotransformation” value [6] was “Compound NOT metabolized”, the “Bacterial Biotransformation” value [7] was “Compound metabolized” and the “Bacterial Biotransformation” value [8] was “Compound metabolized”. For the same compound, the “Bacterial Biotransformation” value [9] was “Compound NOT metabolized” and the “Bacterial Biotransformation” value [20] was “Compound NOT metabolized”.
